Results reported in publication PMC11191095, “QSAR Reveals Decreased Lipophilicity of Polar Residues Determines the Selectivity of Antimicrobial Peptide Activity” (ACS Omega, 2024).
≈ marks a conversion by molar mass, not a printed value. Where a SMILES comes first, the peptide text is derived from it.

Key:
Test in all cases: microbe, parasite or virus in culture
C. auris TDG 1912 = type: cell-based, Candida auris; conditions: Candidozyma auris, TDG1912, read-out: Modal MIC (antibiogram)
Protocol: (§1) Antimicrobial activity was evaluated against a panel of 18 pathogens consisting of eight Gram-negative strains (E. coli NCTC 12923, E. coli LEC001, Pseudomonas aeruginosa PAO1, P. aeruginosa NCTC 13437, Acinetobacter baumannii ATCC 17978, A. baumannii AYE, Klebsiella pneumoniae M6, K. pneumoniae NCTC 13368), four Gram-positive strains (Staphylococcus aureus ATCC 9144, S. aureus NCTC 13616, S. aureus USA300, S. aureus 1199B) and six fungi (Candida auris TDG 1912, C. albicans NCPF 8018, C. krusei NCPF 3876, C. tropicalis NCPF 8760, and C. parapsilosis NCPF 3209). Pathogens were grown in noncation adjusted Mueller Hinton broth (MHB, for bacteria) or Roswell Park Memorial Institute (RPMI 1640) + 2% glucose (for fungi) at 37 °C with 180 rpm shaking and maintained on solid media (tryptic soy agar for bacteria and Sabouraud dextrose agar for fungi). For an antibiogram, see Suppl.
(§2) The 46 peptides were serially diluted (128 to 2 μg/mL) in media down polypropylene 96-well plates. Bacteria or fungi, diluted from an overnight culture to an OD600 of 0.01, were added to the serially diluted peptides at a 1:1 ratio resulting in a starting cell density of ∼5 × 10^5 CFU/mL. Plates were incubated at 37 °C for 20 h, and the optical density was determined spectrophotometrically at 600 nm. Minimum inhibition concentrations (MICs) were determined from a minimum of three biological repeats and are reported in μg/mL as well as μM. […] The MIC50 or MIC90 is defined as the lowest peptide concentration that results in 50% or 90% growth inhibition over a 20 h treatment period, respectively.

C. albicans NCPF 3281 = type: cell-based; conditions: for MIC: Candida albicans, NCPF3281, read-out: Modal MIC (antibiogram); for Modal MIC50 / Modal MIC90: NCPF 3281, 20 h
Protocol: as §1, §2

C. krusei NCPF 3876 = type: cell-based; conditions: for MIC: Pichia kudriavzevii, NCPF3876, read-out: Modal MIC (antibiogram); for Modal MIC50 / Modal MIC90: NCPF 3876, 20 h
Protocol: as §1, §2

C. tropicalis NCPF 8760 = type: cell-based; conditions: for MIC: Candida tropicalis, NCPF8760, read-out: Modal MIC (antibiogram); for Modal MIC50 / Modal MIC90: NCPF 8760, 20 h
Protocol: as §1, §2

[1] = test system: C. parapsilosis NCPF 3209; type: cell-based; conditions: for MIC: Lodderomyces parapsilosis, NCPF3209, read-out: Modal MIC (antibiogram); for Modal MIC50 / Modal MIC90: NCPF 3209, 20 h
Protocol: as §1, §2

C. glabrata NCPF 8018 = type: cell-based; conditions: for MIC: Nakaseomyces glabratus, NCPF8018, read-out: Modal MIC (antibiogram); for Modal MIC50 / Modal MIC90: NCPF 8018, 20 h
Protocol: as §1, §2

A. baumannii AYE = type: cell-based, Acinetobacter baumannii; conditions: AYE, 20 h
Protocol: as §1, §2

A. baumannii ATCC 17978 = type: cell-based, Acinetobacter baumannii; conditions: ATCC 17978, 20 h
Protocol: as §1, §2

E. coli NCTC 12923 = type: cell-based, Escherichia coli; conditions: NCTC 12923, 20 h
Protocol: as §1, §2

[2] = test system: S. aureus (MSSA) ATCC 9144; type: cell-based, Staphylococcus aureus; conditions: ATCC 9144, 20 h
Protocol: as §1, §2

Row | SMILES | MIC (C. auris TDG 1912) | MIC (C. albicans NCPF 3281) | MIC (C. krusei NCPF 3876) | MIC (C. tropicalis NCPF 8760) | MIC [1] | MIC (C. glabrata NCPF 8018) | Modal MIC50 (C. albicans NCPF 3281) | Modal MIC90 (C. albicans NCPF 3281) | Modal MIC50 (C. krusei NCPF 3876) | Modal MIC90 (C. krusei NCPF 3876) | Modal MIC50 (C. tropicalis NCPF 8760) | Modal MIC90 (C. tropicalis NCPF 8760) | Modal MIC50 [1] | Modal MIC90 [1] | Modal MIC50 (C. glabrata NCPF 8018) | Modal MIC90 (C. glabrata NCPF 8018) | Modal MIC (A. baumannii AYE) | Modal MIC (A. baumannii ATCC 17978) | Modal MIC (E. coli NCTC 12923) | Modal MIC [2]
1 | Cc1ccc(Oc2ccccc2-c2csc(N=C3NCCCN3)n2)c(C)c1 [Abafungin, reference compound] | > 128 µg/mL | > 128 µg/mL | 0.25 µg/mL (≈ 0.661 µM) | > 128 µg/mL | 0.25 to 0.5 µg/mL (≈ 0.661 to 1.32 µM) | > 128 µg/mL | – | – | – | – | – | – | – | – | – | – | – | – | – | –
2 | C[C@@H]1[C@H](O)[C@@H](C)/C=C/C=C/C=C/C=C/C=C/C=C/C=C/[C@H](O[C@@H]2O[C@H](C)[C@@H](O)[C@H](N)[C@@H]2O)C[C@@H]2O[C@](O)(C[C@@H](O)C[C@@H](O)[C@H](O)CC[C@@H](O)C[C@@H](O)CC(=O)O[C@H]1C)C[C@H](O)[C@H]2C(=O)O [Amphotericin B, reference compound] | 0.03 µg/mL (≈ 0.0325 µM) | 0.015 µg/mL (≈ 0.0162 µM) | 0.06 µg/mL (≈ 0.0649 µM) | 0.03 µg/mL (≈ 0.0325 µM) | ≤ 0.007 µg/mL | 0.03 µg/mL (≈ 0.0325 µM) | – | – | – | – | – | – | – | – | – | – | – | – | – | –
3 | CC(C)C[C@H](NC(=O)CNC(=O)[C@H](Cc1ccccc1)NC(=O)[C@H](CCCCN)NC(=O)[C@H](Cc1ccccc1)NC(=O)[C@H](C)NC(=O)[C@@H](N)CCCCN)C(=O)N[C@@H](CCCCN)C(=O)N[C@H](C(=O)N[C@H](C(N)=O)C(C)C)[C@@H](C)O [CPF-MW-10a] (H-KAFKFGLKTV-NH2) | – | – | – | – | – | – | > 110.8 µM | > 110.8 µM | > 110.8 µM | > 110.8 µM | > 110.8 µM | > 110.8 µM | > 110.8 µM | > 110.8 µM | > 110.8 µM | > 110.8 µM | – | – | – | –
4 | CC(C)C[C@H](NC(=O)CNC(=O)[C@H](Cc1ccccc1)NC(=O)[C@H](CCCCN)NC(=O)[C@H](Cc1ccccc1)NC(=O)[C@H](C)NC(=O)[C@@H](N)CCCCN)C(=O)N[C@@H](CCCCN)C(=O)N[C@H](C(=O)N[C@H](C(=O)NCC(=O)N[C@@H](CCCCN)C(N)=O)C(C)C)[C@@H](C)O [CPF-MW-12a] (H-KAFKFGLKTVGK-NH2) | – | – | – | – | – | – | > 95.5 µM | > 95.5 µM | > 95.5 µM | > 95.5 µM | > 95.5 µM | > 95.5 µM | > 95.5 µM | > 95.5 µM | > 95.5 µM | > 95.5 µM | – | – | – | –
5 | CC[C@H](C)[C@H](NC(=O)[C@H](CCCCN)NC(=O)[C@H](CC(C)C)NC(=O)[C@H](C)NC(=O)[C@H](C)NC(=O)[C@H](CCCCN)NC(=O)[C@H](CC(C)C)NC(=O)[C@H](C)NC(=O)[C@H](CCCCN)NC(=O)CN)C(=O)NCC(=O)N[C@@H](C)C(=O)N[C@@H](CC(N)=O)C(=O)N[C@H](C(=O)N[C@@H](CC(C)C)C(=O)NCC(=O)NCC(=O)N[C@@H](C)C(=O)N1CCC[C@H]1C(=O)N[C@@H](CCC(N)=O)C(N)=O)C(C)C [CPF-P3-20a] (H-GKALKAALKIGANVLGGAPQ-NH2) | – | – | – | – | – | – | > 65.7 µM | > 65.7 µM | > 65.7 µM | > 65.7 µM | > 65.7 µM | > 65.7 µM | > 65.7 µM | > 65.7 µM | > 65.7 µM | > 65.7 µM | 65.7 µM | 65.7 µM | 65.7 µM | –
6 | CC[C@H](C)C[C@H](C)CCCCCCCCC(=O)N[C@H]1C[C@@H](O)[C@@H](NCCN)NC(=O)[C@@H]2[C@@H](O)CCN2C(=O)[C@H]([C@H](O)CCN)NC(=O)[C@H]([C@H](O)[C@@H](O)c2ccc(O)cc2)NC(=O)[C@@H]2C[C@@H](O)CN2C(=O)[C@H]([C@@H](C)O)NC1=O [Caspofungin, reference compound] | 0.03 µg/mL (≈ 0.0274 µM) | ≤ 0.007 µg/mL | ≤ 0.007 µg/mL | ≤ 0.007 µg/mL | 0.125 µg/mL (≈ 0.114 µM) | ≤ 0.007 µg/mL | – | – | – | – | – | – | – | – | – | – | – | – | – | –
7 | OC(Cn1cncn1)(Cn1cncn1)c1ccc(F)cc1F [Fluconazole, reference compound] | > 128 µg/mL | 0.06 to 0.125 µg/mL (≈ 0.196 to 0.408 µM) | 8 µg/mL (≈ 26.1 µM) | 16 µg/mL (≈ 52.2 µM) | 0.25 µg/mL (≈ 0.816 µM) | 4 µg/mL (≈ 13.1 µM) | – | – | – | – | – | – | – | – | – | – | – | – | – | –
8 | C[C@@H](c1ncncc1F)[C@](O)(Cn1cncn1)c1ccc(F)cc1F [Voriconazole, reference compound] | 1 µg/mL (≈ 2.86 µM) | ≤ 0.007 µg/mL | 0.06 µg/mL (≈ 0.172 µM) | 0.5 µg/mL (≈ 1.43 µM) | ≤ 0.007 µg/mL | 0.125 µg/mL (≈ 0.358 µM) | – | – | – | – | – | – | – | – | – | – | – | – | – | –
9 | CC[C@H](C)[C@H](NC(=O)CNC(=O)[C@H](CCCCN)NC(=O)[C@H](Cc1c[nH]c2ccccc12)NC(=O)[C@H](Cc1c[nH]c2ccccc12)NC(=O)[C@@H](N)Cc1c[nH]c2ccccc12)C(=O)N[C@@H](CCCNC(=N)N)C(=O)NCC(=O)N[C@@H](Cc1ccc(O)cc1)C(=O)N[C@@H](CCCCN)C(=O)NCC(=O)NCC(=O)N[C@@H](Cc1ccc(O)cc1)C(=O)N[C@@H](CCCCN)C(=O)NCC(=O)N[C@@H](C)C(=O)N[C@@H](Cc1ccccc1)C(=O)N[C@@H](CCCCN)C(=O)N[C@@H](CCC(N)=O)C(=O)N[C@H](C(=O)N[C@@H](CCCCN)C(=O)N[C@@H](Cc1ccc(O)cc1)C(N)=O)[C@@H](C)O [W3(Os-C)a] (H-WWWKGIRGYKGGYKGAFKQTKY-NH2) | – | – | – | – | – | – | > 46.9 µM | > 46.9 µM | > 46.9 µM | > 46.9 µM | > 46.9 µM | > 46.9 µM | > 46.9 µM | > 46.9 µM | > 46.9 µM | > 46.9 µM | 5.9 µM | 11.7 µM | 23.5 µM | 11.7 µM
10 | CC[C@H](C)[C@H](NC(=O)CNC(=O)[C@H](CCCCN)NC(=O)[C@@H](N)Cc1c[nH]c2ccccc12)C(=O)N[C@@H](CCCNC(=N)N)C(=O)NCC(=O)N[C@@H](Cc1ccc(O)cc1)C(=O)N[C@@H](CCCCN)C(=O)NCC(=O)NCC(=O)N[C@@H](Cc1ccc(O)cc1)C(=O)N[C@@H](CCCCN)C(=O)NCC(=O)N[C@@H](C)C(=O)N[C@@H](Cc1ccccc1)C(=O)N[C@@H](CCCCN)C(=O)N[C@@H](CCC(N)=O)C(=O)N[C@H](C(=O)N[C@@H](CCCCN)C(=O)N[C@@H](Cc1ccc(O)cc1)C(N)=O)[C@@H](C)O [W(Os-C)a] (H-WKGIRGYKGGYKGAFKQTKY-NH2) | – | – | – | – | – | – | > 54.4 µM | > 54.4 µM | > 54.4 µM | > 54.4 µM | > 54.4 µM | > 54.4 µM | > 54.4 µM | > 54.4 µM | > 54.4 µM | > 54.4 µM | 13.6 µM | 27.2 µM | – | 54.4 µM
11 | CC[C@H](C)[C@H](NC(=O)[C@H](CCCCN)NC(=O)CNC(=O)[C@@H](N)CC(C)C)C(=O)N[C@@H](C)C(=O)N[C@@H](CCCCN)C(=O)N[C@H](C(=O)NCC(=O)N[C@@H](CC(C)C)C(=O)N[C@@H](CCCCN)C(N)=O)C(C)C [XPF10a] (H-LGKIAKVGLK-NH2) | – | – | – | – | – | – | > 120.6 µM | > 120.6 µM | > 120.6 µM | > 120.6 µM | > 120.6 µM | > 120.6 µM | > 120.6 µM | > 120.6 µM | > 120.6 µM | > 120.6 µM | – | – | – | –
